Data: ChEMBL document CHEMBL5257153, “Oxazolidinones as versatile scaffolds in medicinal chemistry” (RSC Med Chem, 2023)
In brackets after ≈: the same amount, converted by molar mass.

Columns and labels:
[1] = tested on: Mycobacterium tuberculosis; experiment: Antimycobacterial activity against Mycobacterium tuberculosis H37Rv strain assessed as bacterial growth inhibition incubated for 18 to 24 hrs; type: functional; details: time 18-24 hrs
Staphylococcus aureus [2] = experiment: Antibacterial activity against methicillin resistant Staphylococcus aureus assessed as bacterial growth inhibition incubated for 18 hrs; type: functional
Staphylococcus aureus [3] = experiment: Antibacterial activity against methicillin sensitive Staphylococcus aureus assessed as bacterial growth inhibition incubated for 18 hrs; type: functional
HEK293 = experiment: Anticancer activity against HEK293 cells assessed as cell growth inhibition incubated for 48 hrs by MTT assay; type: functional, cell-based; details: Homo sapiens, HEK293, 48 h
L02 [4] = experiment: Anticancer activity against human L02 cells assessed as cell growth inhibition incubated for 48 hrs by MTT assay; type: functional, cell-based; details: L02, 48 h
Metaphire posthuma [5] = experiment: Anti-helmintic activity at Metaphire posthuma assessed as paralysis induction time; type: functional
Metaphire posthuma [6] = experiment: Anti-helmintic activity at Metaphire posthuma assessed as time of survival; type: functional
[7] = tested on: Mycobacterium tuberculosis; experiment: Antimycobacterial activity against Mycobacterium tuberculosis H37Rv strain assessed as bacterial growth inhibition incubated for 48 hrs by Microplate amar blue assay; type: functional
[8] = tested on: Mycobacterium tuberculosis; experiment: Antimycobacterial activity against Mycobacterium tuberculosis H37Rv strain assessed as bacterial growth inhibition by Microplate amar blue assay; type: functional
Rattus norvegicus = organism: Rattus norvegicus; experiment: Anticonvulsant activity in rat; type: functional
Mus musculus = organism: Mus musculus; experiment: Anticonvulsant activity in mouse; type: functional
[9] = Toxicity in mouse; type: organism-based; details: in vivo
HeLa = experiment: Anticancer activity against human HeLa cells assessed as cell growth inhibition incubated for 72 hrs by MTT assay; type: functional, cell-based
MCF7 = experiment: Anticancer activity against human MCF7 cells assessed as cell growth inhibition incubated for 72 hrs by MTT assay; type: functional, cell-based; details: MCF7, 72 h
Clostridioides difficile [10] = experiment: Antibacterial activity against Clostridium difficile ATCC 43596 strain assessed as bacterial growth inhibition incubated for 48 hrs by agar dilution method; type: functional
Clostridioides difficile [11] = experiment: Antibacterial activity against Clostridium difficile NCTC 11223 strain assessed as bacterial growth inhibition incubated for 48 hrs by agar dilution method; type: functional
Clostridioides difficile [12] = experiment: Antibacterial activity against Clostridium difficile ATCC 43255 strain assessed as bacterial growth inhibition incubated for 48 hrs by agar dilution method; type: functional
Clostridioides difficile [13] = experiment: Antibacterial activity against Clostridium difficile NAP1/027/BI-type strain 2009155 assessed as bacterial growth inhibition incubated for 48 hrs by agar dilution method; type: functional
Clostridioides difficile [14] = experiment: Antibacterial activity against Clostridium difficile 2004118 strain assessed as bacterial growth inhibition incubated for 48 hrs by agar dilution method; type: functional
Clostridioides difficile [15] = experiment: In vivo Antibacterial activity against Clostridium difficile infected in hamster assessed as survival at 50 mg/kg, sc relative to control; type: functional
[16] = tested on: Mycobacterium tuberculosis; experiment: Antimycobacterial activity against Mycobacterium tuberculosis assessed as bacterial growth inhibition; type: functional
[17] = target: Aldo-keto reductase family 1 member B1 (Homo sapiens, UniProt P15121); experiment: Inhibition of […] (unknown origin)
Kallikrein-6 = Kallikrein-6 (Homo sapiens, UniProt Q92876); experiment: Inhibition of KLK6 (unknown origin)
[18] = Inhibition of human LTB4
[19] = Inhibition of human LTC4
Carbonic anhydrase 1 = Carbonic anhydrase 1 (Homo sapiens, UniProt P00915); experiment: Inhibition of human CA1
Chain of Carbonic anhydrase 1 (P00915 whole entry): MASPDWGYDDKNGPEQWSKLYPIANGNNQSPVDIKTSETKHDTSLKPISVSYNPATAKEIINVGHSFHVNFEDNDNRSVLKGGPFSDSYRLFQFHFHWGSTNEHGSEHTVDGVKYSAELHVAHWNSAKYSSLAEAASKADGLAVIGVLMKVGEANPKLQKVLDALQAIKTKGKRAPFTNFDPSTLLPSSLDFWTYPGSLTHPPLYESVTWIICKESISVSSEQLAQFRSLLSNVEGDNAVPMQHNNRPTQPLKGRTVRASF

Carbonic anhydrase 2 = Carbonic anhydrase 2 (Homo sapiens, UniProt P00918); experiment: Inhibition of human CA2
Acetylcholinesterase = Acetylcholinesterase (Homo sapiens, UniProt P22303); experiment: Inhibition of human AchE
Chain of Acetylcholinesterase (P22303 whole entry): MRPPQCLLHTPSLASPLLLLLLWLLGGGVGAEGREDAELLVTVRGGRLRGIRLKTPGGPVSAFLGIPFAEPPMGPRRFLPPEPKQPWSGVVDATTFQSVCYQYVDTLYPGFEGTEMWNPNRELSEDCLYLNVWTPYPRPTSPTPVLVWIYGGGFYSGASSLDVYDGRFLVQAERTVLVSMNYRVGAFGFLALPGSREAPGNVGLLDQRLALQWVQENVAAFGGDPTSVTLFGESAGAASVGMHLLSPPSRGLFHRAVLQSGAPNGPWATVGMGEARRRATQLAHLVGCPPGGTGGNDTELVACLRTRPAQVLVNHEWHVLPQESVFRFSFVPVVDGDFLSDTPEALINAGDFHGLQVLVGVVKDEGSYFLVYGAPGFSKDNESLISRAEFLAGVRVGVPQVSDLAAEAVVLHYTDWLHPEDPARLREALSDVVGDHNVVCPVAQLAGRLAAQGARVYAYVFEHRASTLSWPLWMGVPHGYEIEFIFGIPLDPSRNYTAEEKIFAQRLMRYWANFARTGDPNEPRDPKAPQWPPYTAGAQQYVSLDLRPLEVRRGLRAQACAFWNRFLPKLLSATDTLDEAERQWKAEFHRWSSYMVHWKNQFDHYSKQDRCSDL

Alpha glucosidase = Alpha glucosidase (Homo sapiens, UniProt O43451+P10253+P14410+Q2M2H8); experiment: Inhibition of human alpha glucosidase; type: protein assay
[20] = AUClast in Sprague-Dawley rat at 15 mg/kg, iv by HPLCLC-MS/MS analysis; type: ADME, organism-based; design: dose 15 mg/kg, route iv; details: in vivo
[21] = Metabolic stability in mouse microsomes assessed as intrinsic clearance; type: ADME, Microsome
[22] = Metabolic stability in human microsomes assessed as intrinsic clearance; type: ADME, Microsome
[23] = Metabolic stability in mouse microsomes assessed as half life; type: ADME, Microsome
[24] = Metabolic stability in human microsomes assessed as half life; type: ADME, Microsome
Enterococcus faecalis = experiment: Antibacterial activity against Linezolid resistant Enterococcus faecalis assessed as bacterial growth inhibition incubated for 24 hrs; type: functional
Staphylococcus aureus [25] = experiment: Antibacterial activity against Staphylococcus aureus assessed as bacterial growth inhibition incubated for 24 hrs; type: functional
Enterococcus faecium = experiment: Antibacterial activity against Linezolid resistant Enterococcus faecium assessed as bacterial growth inhibition incubated for 24 hrs; type: functional
Mycobacterium kansasii = experiment: Antibacterial activity against Mycobacterium kansasii assessed as bacterial growth inhibition; type: functional
[26] = tested on: Mycolicibacterium fortuitum; experiment: Antibacterial activity against Mycobacterium fortuitum assessed as bacterial growth inhibition; type: functional
Mycobacteroides chelonae = experiment: Antibacterial activity against Mycobacteroides chelonae assessed as bacterial growth inhibition; type: functional
[27] = target: T1, Acyl-CoA (8-3)-desaturase (Homo sapiens, UniProt O60427); experiment: Inhibition of human Delta 5 desaturase (unknown origin) expressed in human HepG2 cells; type: cell-based
Target sequence in this assay (O60427 whole entry): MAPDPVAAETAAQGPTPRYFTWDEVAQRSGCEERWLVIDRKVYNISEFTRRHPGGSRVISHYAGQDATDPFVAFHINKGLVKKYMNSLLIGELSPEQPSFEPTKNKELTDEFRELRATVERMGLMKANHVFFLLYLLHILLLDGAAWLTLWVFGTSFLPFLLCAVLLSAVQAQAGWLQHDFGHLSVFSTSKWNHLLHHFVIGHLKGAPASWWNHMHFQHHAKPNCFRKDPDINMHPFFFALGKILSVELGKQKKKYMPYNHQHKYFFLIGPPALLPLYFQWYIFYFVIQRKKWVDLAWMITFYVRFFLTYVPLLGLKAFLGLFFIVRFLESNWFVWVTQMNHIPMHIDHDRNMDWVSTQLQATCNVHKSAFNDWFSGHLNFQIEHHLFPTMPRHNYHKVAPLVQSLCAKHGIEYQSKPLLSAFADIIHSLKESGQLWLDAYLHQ

[28] = target: T1, Acyl-CoA (8-3)-desaturase; experiment: In vivo inhibition of human Delta 5 desaturase in C57BL/6J mouse at 3 mg/kg, po relative to control; type: organism-based
Target sequence in this assay (O60427 whole entry, looked up): as the sequence (O60427 whole entry) above

[29] = target: T1, Acyl-CoA (8-3)-desaturase; experiment: In vivo inhibition of human Delta 5 desaturase in atherosclerosis mouse model at 3 mg/kg, po relative to control; type: organism-based
Target sequence in this assay (O60427 whole entry, looked up): as the sequence (O60427 whole entry) above

HepG2 [30] = experiment: Anticancer activity against human HepG2 assessed as IL-6 induced luciferase activity; type: functional, cell-based
HepG2 [31] = experiment: Anticancer activity against human HepG2 assessed as IL-6 induced luciferase activity at 50 uM relative to control; type: functional
TF-1 = experiment: Anticancer activity against human TF-1 cells assessed as cell growth inhibition; type: functional, cell-based
CNE-2 = experiment: Anticancer activity against human CNE-2 cells assessed as cell growth inhibition incubated for 48 hrs by MTT assay; type: functional, cell-based; details: CNE-2, 48 h
SK-OV-3 = experiment: Anticancer activity against human SK-OV-3 cells assessed as cell growth inhibition incubated for 48 hrs by MTT assay; type: functional, cell-based; details: SK-OV-3, 48 h
MGC-803 = experiment: Anticancer activity against human MGC-803 cells assessed as cell growth inhibition incubated for 48 hrs by MTT assay; type: functional, cell-based; details: MGC-803, 48 h
NCI-H460 = experiment: Anticancer activity against human NCI-H460 cells assessed as cell growth inhibition incubated for 48 hrs by MTT assay; type: functional, cell-based; details: NCI-H460, 48 h
L02 [32] = experiment: Cytotoxicity against human L02 cells assessed as cell growth inhibition incubated for 48 hrs by MTT assay; type: functional, cell-based; details: L02, 48 h

In the case of O=C(NCC(=O)N1CCN(c2ccc(N3C[C@H](Cn4ccnn4)OC3=O)cc2F)CC1)c1ccc([N+](=O)[O-])o1, the MIC90 [1] is reported as 0.9 µM (≈ 0.488 µg/mL).
For CC(=O)NC[C@H]1CN(c2ccc(-n3cc(-c4ccccn4)cn3)c(F)c2)C(=O)O1, the MIC (Staphylococcus aureus [2]) was 0.5 µg/mL (≈ 1.26 µM), the MIC (Staphylococcus aureus [3]) was 1 µg/mL (≈ 2.53 µM) and the IC50 (HEK293) was > 25 µM. It also gave an IC50 (L02 [4]) of 50 µM.
O=C(OC[C@H]1CN(c2ccc(N3CCOCC3)nc2)C(=O)O1)C1CCCCC1 showed a Time (Metaphire posthuma [5]) of 3.6 min and a Survival (Metaphire posthuma [6]) of 8.1 min.
O=C1O[C@@H](Cn2ccnn2)CN1c1ccc(N2CCOCC2)c(F)c1 gave an MIC90 [7] of 1.3 µM (≈ 0.452 µg/mL).
In the case of CC(=O)NC[C@H]1CN(c2ccc(N3C[C@H]4C[C@@H](O)C[C@H]4C3)c(F)c2)C(=O)O1, the MIC90 [8] is reported as 0.6 µM.
With O=C(NCC(=O)N1CCN(c2ccc(N3C[C@H](Cn4ccnn4)OC3=O)cc2F)CC1)c1cccs1 the ED50 (Rattus norvegicus) was 34.5 mg/kg, the ED50 (Mus musculus) was 90 mg/kg and the TD50 [9] was > 500 mg/kg.
Work on CCN(CC)C(=O)/C=C1/OC(=O)N(Cc2ccccc2)C1(C)C yielded an IC50 (HeLa) of 17.7 µM and an IC50 (MCF7) of 31.1 µM.
Compound CC(=O)NC[C@H]1CN(c2ccc(-c3cnc(-n4cncn4)nc3)c(F)c2)C(=O)O1 has an MIC90 (Clostridioides difficile [10]) of 0.25 µg/mL (≈ 0.629 µM), an MIC90 (Clostridioides difficile [11]) of 0.25 µg/mL (≈ 0.629 µM) and an MIC90 (Clostridioides difficile [12]) of 0.25 µg/mL (≈ 0.629 µM). It also gave an MIC90 (Clostridioides difficile [13]) of 0.25 µg/mL (≈ 0.629 µM), an MIC90 (Clostridioides difficile [14]) of 0.25 µg/mL (≈ 0.629 µM) and a survival at 50 mg/kg (Clostridioides difficile [15]) of 100%.
With CC(=O)NC[C@H]1CN(c2ccc(-c3ccc(-c4csc(N)n4)cc3)c(F)c2)C(=O)O1 the MIC90 [16] was 0.9 µM (≈ 0.384 µg/mL).
With COc1ccc(C2CC3(CN(CC(=O)O)C(=O)O3)c3cc(Br)ccc3O2)cc1 (centres undefined) the IC50 [17] was 0.65 µM.
COc1ccccc1-c1ccc([C@H](C)Nc2cncc(N3C(=O)OC[C@@H]3C(C)C)n2)cc1 showed an IC50 (Kallikrein-6) of 0.00251 µM.
CCOc1nc(-c2ccc(N3C[C@H](CNC(C)=O)OC3=O)cc2F)cs1 gave an MIC90 [16] of 2.6 µM (≈ 0.986 µg/mL).
COc1cc(COc2ccccc2C2(C)CN(CC(=O)O)C(=O)O2)cc(OC)c1OC (centres undefined) gave an IC50 [17] of 3.19 µM.
For CN[C@H](CC(C)C)C(=O)N[C@H]1C(=O)N[C@@H](CC(N)=O)C(=O)N[C@H]2C(=O)N[C@H]3C(=O)N[C@H](C(=O)N[C@H](C(=O)O)c4cc(O)cc(O)c4-c4cc3ccc4O)[C@H](O)c3ccc(c(Cl)c3)Oc3cc2cc(c3O[C@@H]2O[C@H](CO)[C@@H](O)[C@H](O)[C@H]2O[C@H]2C[C@](C)(N)[C@H](O)[C@H](C)O2)Oc2ccc(cc2Cl)[C@H]1O [VANCOMYCIN], the survival at 50 mg/kg (Clostridioides difficile [15]) was 50%.
Compound CCCCCCC(=O)N(O)C[C@H]1CN(c2ccc(N3CCOCC3)c(F)c2)C(=O)O1 has an IC50 [18] of 0.7 µM and an IC50 [19] of 0.9 µM.
In the case of CC1(C)O[C@@H]2[C@@H](O)[C@H]3NC(=O)O[C@H]3C[C@@H]2O1, the IC50 (Carbonic anhydrase 1) is reported as 45.6 µM, the IC50 (Carbonic anhydrase 2) is reported as 24.8 µM and the IC50 (Acetylcholinesterase) is reported as 58.7 µM. The IC50 (Alpha glucosidase) was 30.5 µM.
Compound O=C(COP(=O)(O)O)N1CCN(c2ccc(-c3ccc(N4C[C@H](Cn5ccnn5)OC4=O)cc3F)cn2)C=N1 has an AUClast [20] of 5.08 mg/h/L.
Work on O=C1CC2CN(c3ccc(N4C[C@H](Cn5ccnn5)OC4=O)cc3F)CC2C1 (some centres undefined) yielded an MIC90 [8] of 1.2 µM.
For CC[C@H](NC(=O)[C@H]1CN(c2ccc(C(=N)N)cc2)C(=O)O1)c1cccc2ccccc12, the CLH [21] was 2.4 mL/min/g, the CLH [22] was 3.1 mL/min/g and the half-life [23] was > 3 h. For the same compound, the half-life [24] was > 3 h.
With O=C(CO)N1CCN(c2ccc(-c3ccc(N4C[C@H](Cn5ccnn5)OC4=O)cc3F)cn2)C=N1 the MIC (Enterococcus faecalis) was < 2 µg/mL, the MIC (Staphylococcus aureus [25]) was < 2 µg/mL and the MIC (Enterococcus faecium) was < 2 µg/mL. The AUClast [20] was 85 mg/h/L.
With CC(=O)NC[C@H]1CN(c2ccc(N3CCN(c4ccc5nccn5n4)CC3)c(F)c2)C(=O)O1 the MIC90 [16] was 1.1 µM (≈ 0.499 µg/mL), the MIC90 (Mycobacterium kansasii) was 1 µM (≈ 0.453 µg/mL) and the MIC90 [26] was 8 µM (≈ 3.63 µg/mL). The MIC90 (Mycobacteroides chelonae) was 8 µM (≈ 3.63 µg/mL).
Cc1ncc([N+](=O)[O-])n1CCO [METRONIDAZOLE] showed a survival at 50 mg/kg (Clostridioides difficile [15]) of 0%.
Work on C[C@@H]1[C@@H](c2ccc(F)cc2)OC(=O)N1c1cc(C#N)cc(C#N)c1 yielded an IC50 [27] of 0.0015 µM, an inhibition [28] of 74% and an inhibition [29] of 66%.
For C=C(CCCCC)[C@@H](O)[C@H](C)C(=O)N1C(=O)OC[C@@H]1C(C)C, the IC50 (HepG2 [30]) was 5.9 µM, the inhibition at 50 µM (HepG2 [31]) was 90% and the IC50 (TF-1) was 7.5 µM.
CC(C)c1ccc2c(c1)CCC1[C@](C)(C(=O)OCC3CN(c4ccc(F)cc4)C(=O)O3)CCC[C@]21C (some centres undefined) gave an IC50 (CNE-2) of 3.82 µM, an IC50 (SK-OV-3) of 3.82 µM and an IC50 (MGC-803) of 3.82 µM. For the same compound, the IC50 (NCI-H460) was 3.82 µM and the IC50 (L02 [32]) was > 100 µM.
In the case of CC(C)C[C@@H](NC(=O)OC1c2ccccc2-c2ccccc21)C(=O)N[C@@H](Cc1ccccc1)[C@H]1CN(c2ccc(N3CCOCC3)c(F)c2)C(=O)O1, the MIC90 [16] is reported as 2.6 µM (≈ 1.84 µg/mL).
